Measurements: ChEMBL document CHEMBL4130435, “Acetylcholinesterase Inhibitory Alkaloids from the Whole Plants of Zephyranthes carinata” (J Nat Prod, 2017)

Target: Acetylcholinesterase (Homo sapiens, UniProt P22303)
Experiment: Inhibition of AChE (unknown origin)

Chain of Acetylcholinesterase (P22303 whole entry): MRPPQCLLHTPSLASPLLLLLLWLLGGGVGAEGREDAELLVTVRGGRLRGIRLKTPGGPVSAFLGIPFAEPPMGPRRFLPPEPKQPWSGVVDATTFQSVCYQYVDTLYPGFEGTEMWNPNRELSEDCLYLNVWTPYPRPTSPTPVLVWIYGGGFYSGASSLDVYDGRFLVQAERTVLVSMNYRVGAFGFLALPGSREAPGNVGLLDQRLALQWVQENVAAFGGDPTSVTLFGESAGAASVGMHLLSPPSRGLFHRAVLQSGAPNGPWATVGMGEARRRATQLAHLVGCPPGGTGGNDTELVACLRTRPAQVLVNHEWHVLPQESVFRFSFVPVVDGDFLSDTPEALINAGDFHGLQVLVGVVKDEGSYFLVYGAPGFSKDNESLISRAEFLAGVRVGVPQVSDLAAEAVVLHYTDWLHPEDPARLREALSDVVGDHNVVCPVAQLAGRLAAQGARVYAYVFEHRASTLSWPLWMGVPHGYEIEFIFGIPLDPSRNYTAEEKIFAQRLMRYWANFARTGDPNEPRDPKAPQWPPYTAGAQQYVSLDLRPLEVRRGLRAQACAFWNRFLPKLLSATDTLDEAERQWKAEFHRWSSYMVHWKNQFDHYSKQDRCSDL

| SMILES | IC50 |
| --- | --- |
| CO[C@@H]1C=C[C@@]23c4cc5c(cc4C(=O)N(CCC(C)C)[C@@H]2CN(C)[C@@H]3C1)OCO5 | > 200 µM |
| O[C@H]1[C@H]2c3cc4c(cc3CN3CCC(=C[C@@H]1O)[C@H]23)OCO4 [LYCORINE] | > 200 µM |
| COc1ccc2c3c1O[C@H]1C[C@@H](O)CC[C@@]31CCN(C)C2 | 20.1 µM |
| COc1ccc2c3c1O[C@H]1C[C@H](O)CC[C@@]31CCN(C)C2 | 57.9 µM |
| CO[C@@H]1C=C[C@@]23c4cc5c(cc4C[N@@+]([O-])(CCc4ccc(O)cc4)[C@@H]2C(=O)N(C)[C@H]3C1)OCO5 | > 200 µM |
| COc1cc2c(cc1OC)[C@@H]1[C@H](O)[C@@H](OC)C=C3CC[N@+]([O-])(C2)[C@H]31 | > 200 µM |
| COc1cc2c(cc1O)[C@@H]1[C@H](O)[C@@H](OC)C=C3CC[N@@+]([O-])(C2)[C@H]31 | > 200 µM |
| CO[C@@H]1C=C[C@@]23c4cc5c(cc4CN(CCc4ccccc4)[C@@H]2C(=O)N(C)[C@H]3C1)OCO5 | > 200 µM |
| CO[C@@H]1C=C[C@@]23c4cc5c(cc4CN(CCc4ccc(O)cc4)[C@@H]2C(=O)N(C)[C@H]3C1)OCO5 | > 200 µM |
| COc1ccc2c3c1O[C@H]1C[C@@H](O)CC[C@@]31CC[N@@+](C)([O-])C2 | > 200 µM |
| CO[C@@H]1C=C[C@@]23c4cc5c(cc4C(=O)N(C)[C@@H]2C(=O)N(C)[C@H]3C1)OCO5 | > 200 µM |
| CO[C@@H]1C=C[C@@]23c4cc5c(cc4CN(CCC(C)C)[C@@H]2C(=O)N(C)[C@H]3C1)OCO5 | > 200 µM |
| CO[C@@H]1C=C[C@@]23c4cc5c(cc4CN(CCC(C)C)[C@]2(C(C)=O)C(=O)N(C)[C@H]3C1)OCO5 | > 200 µM |
| COc1ccc2c3c1O[C@H]1C[C@@H](O)C=C[C@@]31[C@H](O)C[N@@+](C)([O-])C2 | > 200 µM |
| COc1cc2c(cc1O)[C@@H]1[C@H](O)[C@@H](O)C=C3CCN(C2)[C@H]31 [PSEUDOLYCORINE] | 188 µM |
| CO[C@@H]1C=C[C@@]23c4cc5c(cc4C[N@@+]([O-])(CCO)[C@@H]2C(=O)N(C)[C@H]3C1)OCO5 | 126 µM |
| CO[C@@H]1C=C[C@@]23c4cc5c(cc4CN(C)[C@@H]2C(=O)N(C)[C@H]3C1)OCO5 | > 200 µM |
| COc1cc2c3c(c1)c1cc(=O)c(OC)cc-1cn3CC2 | 35.6 µM |
| COc1cc2c(cc1O)[C@@H]1[C@H](O)[C@@H](OC)C=C3CCN(C2)[C@H]31 | > 200 µM |
| CO[C@@H]1C=C[C@@]23c4cc5c(cc4C(=O)N(CCC(C)C)[C@@H]2C(=O)N(C)[C@H]3C1)OCO5 | > 200 µM |
| CO[C@@H]1C=C[C@@]2(CN(CCC(C)C)Cc3cc4c(cc32)OCO4)[C@@H](N(C)C=O)C1 | > 200 µM |
| COc1cc2c(cc1OC)[C@@H]1[C@H](O)[C@@H](OC)C=C3CCN(C2)[C@H]31 [GALANTHINE] | 6.1 µM |
| CN[C@H]1C[C@H](OC)C=C[C@@]12C(=O)N(CCC(C)C)Cc1cc3c(cc12)OCO3 | > 200 µM |
| CO[C@@H]1C=C[C@@]23c4cc5c(cc4C[N@@+]([O-])(CCc4ccccc4)[C@@H]2C(=O)N(C)[C@H]3C1)OCO5 | > 200 µM |
